Blank lines part the entries; values can stand above or below the molecule they belong to.
Experiments:
[1] = Dissolution profile of ezetimibe preparations in water (amount dissolved over time); assay type: physicochemical
Excerpt: The results are shown in Tables 1 to 3, and FIGS. 1 to 3.

[2] = Dissolution profile of atovaquone preparations in 10 mM triethylamine/HCl (pH=10) buffer; assay type: physicochemical
[3] = cited from earlier work

Amount dissolved ([2]; Atovaquone and Aerosil 200, time 10 min): 0.16 µg/mL
Amount dissolved ([2]; Atovaquone and Aerosil 200, time 20 min): 0.7 µg/mL
Amount dissolved ([2]; Atovaquone and Aerosil 200, time 60 min): 4.1 µg/mL
Amount dissolved ([2]; Atovaquone and Aerosil 200, time 100 min): 6.2 µg/mL
Structure (SMILES): O=C1C(=O)c2ccccc2C(O)=C1C1CCC(c2ccc(Cl)cc2)CC1 (centres unmarked) [Crystalline atovaquone, 3-[4-(4-chlorophenyl)cyclohexyl]-4-hydroxy-naphthalene-1,2-dione]

Amount dissolved ([1]; Ezetimibe and Prosolv, time 10 min): 0.08 µg/mL
Amount dissolved ([1]; Ezetimibe and Prosolv, time 20 min): 0.13 µg/mL
Amount dissolved ([1]; Ezetimibe and Prosolv, time 60 min): 0.12 µg/mL
Amount dissolved ([1]; Ezetimibe and Prosolv, time 100 min): 0.25 µg/mL
Structure (SMILES): O=C1[C@H](CC[C@H](O)c2ccc(F)cc2)[C@@H](c2ccc(O)cc2)N1c1ccc(F)cc1 [Crystalline ezetimibe, 1-(4-fluorophenyl)-3-[3-(4-fluorophenyl)-3-hydroxy-propyl]-4-(4-hydroxyphenyl)-azetidin-2-one]

Continued, molecule first:

Structure (SMILES): O=C1[C@H](CC[C@H](O)c2ccc(F)cc2)[C@@H](c2ccc(O)cc2)N1c1ccc(F)cc1 [Amorphous ezetimibe, 1-(4-fluorophenyl)-3-[3-(4-fluorophenyl)-3-hydroxy-propyl]-4-(4-hydroxyphenyl)-azetidin-2-one]
Amount dissolved ([1]; Ezetimibe and Aerosil 200, time 10 min): 0.19 µg/mL
Amount dissolved ([1]; Ezetimibe and Aerosil 200, time 20 min): 0.20 µg/mL
Amount dissolved ([1]; Ezetimibe and Aerosil 200, time 45 min): 0.27 µg/mL
Amount dissolved ([1]; Ezetimibe and Aerosil 200, time 100 min): 0.41 µg/mL

Structure (SMILES): O=C1C(=O)c2ccccc2C(O)=C1C1CCC(c2ccc(Cl)cc2)CC1 (centres unmarked) [atovaquone, 3-[4-(4-chlorophenyl)cyclohexyl]-4-hydroxy-naphthalene-1,2-dione]
log P/hydrophobicity value [3]: 5.251

Structure (SMILES): O=C1[C@H](CC[C@H](O)c2ccc(F)cc2)[C@@H](c2ccc(O)cc2)N1c1ccc(F)cc1 [ezetimibe, 1-(4-fluorophenyl)-3-[3-(4-fluorophenyl)-3-hydroxy-propyl]-4-(4-hydroxyphenyl)-azetidin-2-one]
log P/hydrophobicity value [3]: 4.584

From patent publication US20100305087A1, “ACTIVE PHARMACEUTICAL INGREDIENT ON A SOLID SUPPORT, AMORPHOUS AND WITH AN IMPROVED SOLUBILITY” (Lek Pharmaceuticals d.d., priority 2007, published 2010)
